Assay results published in patent publication US9617310B2 (priority 2013, dated 2017).

Legend:
[1] = from C=CCCC[C@@H]1[C@H]2C[C@H]2C[C@H]1OC(=O)N[C@H](C(=O)N1C[C@H](Oc2nc3cc(Cl)ccc3nc2C=C)C[C@H]1C(=O)OC)C(C)(C)C; rcm bond; Zhan Catalyst-1B; DCE; 4.97 mM; 83.0 °C; 0.67 h
[2] = tested on: genotype 2a stable HCV replicon (JFH-1) in Huh-7-derived cells; assay: Stable subgenomic HCV replicon, genotype 2a, Renilla luciferase; type: cell-based; settings: Hepatitis C virus, stable replicon genotype 2a, 72 h, read-out: EC50 2A RLUC
Experimental: (§1) Antiviral potency (EC50) was determined in both stable subgenomic HCV replicon cell lines and transient-transfected HCV replicon cells. The term half maximal effective concentration (EC50) refers to the concentration of a drug which induces a response halfway between the baseline and maximum after the exposure time specified below.
(§2) Stable subgenomic HCV replicons for genotype 1a, 1b, 2a, 3a, and 4a were established in Huh-7-derived cells as described by Lohmann et al (Lohmann V, Korner F, Koch J, et al Replication of subgenomic hepatitis C virus RNAs in a hepatoma cell line. Science 1999; 285:119-3). Each stable cell line contains a bicistronic HCV replicon that encodes a humanized Renilla luciferase (hRLuc) reporter gene fused to a selectable neomycin-resistance gene, followed by an EMCV IRES and the NS3-NS5B coding region of HCV. […] Luciferase activity was measured as a marker for intracellular HCV replication levels.
(§3) The genotype 1a stable replicon was derived from the H77 HCV strain and contained adaptive mutations P1496L and S2204I. The genotype 1b stable replicon was derived from the Con1 HCV strain and contained adaptive mutations E1202G, T1280I, and K1846T. […] The genotype 3a stable replicon was derived from the S52 HCV strain and contained adaptive mutations P1121 L, A1198T and S2210I (equivalent to S2204I in genotype 1). The genotype 4a stable replicon was derived from the ED43 HCV strain and contained adaptive mutations Q1691R and S2204I. All replicon cell lines were propagated in Huh-7-derived cells and maintained in Dulbecco's modified Eagle's Medium (DMEM) supplemented with 10% fetal bovine serum (FBS) and 0.5 mg/ml G418.
(§4) To perform EC50 assays, cells from each HCV replicon were dispensed into 384-well plates. Compounds were dissolved in DMSO at a concentration of 10 mM and diluted in DMSO using an automated pipetting instrument. Three-fold serially diluted compounds were directly added to the cells using an automated instrument. DMSO was used as a negative (solvent; no inhibition) control, and a combination of three HCV inhibitors including a protease inhibitor; an NS5A inhibitor and a nucleoside inhibitor was used at concentrations >100×EC50 as a positive control (100% inhibition). Seventy-two hours later, cells were lysed and Renilla luciferase activity were quantified as recommended by the manufacturer (Promega-Madison, Wis.). Non-linear regression was performed to calculate […], values.

[3] = tested on: genotype 3a stable HCV replicon (S52) in Huh-7-derived cells; assay: Stable subgenomic HCV replicon, genotype 3a, Renilla luciferase; type: cell-based; settings: Hepatitis C virus, 72 h, read-out: EC50 3A RLUC
Experimental: as §1, §2, §3, §4

NS3 genotype 1b protease = biological target: T1, NS3 genotype 1b protease (Hepatitis C virus genotype 1b, UniProt Q9WMX2, E1202G); assay: Ki determination, NS3 protease genotype 1b (fluorogenic depsipeptide substrate); type: biochemical; settings: NS3 protease domain genotype 1b, NS4A peptide
T1 construct: Purified NS3 protease domain (amino acids 1-181) of the genotype 1b and 3a virus were generated as above; K3 hexahistidine tag (N); rTEV protease cleavage site (N); made in house; host or cells: E. coli BL21AI
Excerpt: (§5) Ki Determination for Genotypes 1b and 3a NS3 Protease.
(§6) Purified NS3 protease domain (amino acids 1-181) of the genotype 1b and 3a virus were generated as above. The internally quenched fluorogenic depsipeptide substrate Ac-DED(Edans)-EEAbuψ[COO]ASK(Dabcyl)-NH2 and a synthetic peptide containing the hydrophobic core residues of the NS4A protein cofactor ([…]; NS4A peptide) were obtained from Anaspec, Inc. (San Jose, Calif.). Other chemicals and biochemicals were of reagent grade or better and were purchased from standard suppliers.
(§7) Reactions were run at room temperature in buffer consisting of 50 mM HEPES, 40% glycerol, 0.05% Triton X-100, 10 mM DTT, and 10% DMSO. The final assay solutions contained 50 pM NS3 genotype 1b protease or 200 pM genotype 3a protease, 20 μM NS4A peptide, and 4 μM substrate (genotype 1b) or 2 μM substrate (genotype 3a). Inhibitor concentrations varied from 100 nM to 5 pM in 3-fold dilutions, and no-inhibitor controls were included.
(§8) Compound dilutions were made in DMSO at 20× final concentration. Reaction mixtures were prepared in 96-well assay plates. A solution of enzyme and NS4A peptide in assay buffer (25 μL volume with both reagents at 4× final concentration) was mixed with 45 μL assay buffer and 5 μL of either inhibitor or DMSO, and pre-incubated at room temperature for 1 hour. The reaction was started by addition of 25 μL substrate solution at 4× final concentration. Plates were mixed vigorously for 5-10 seconds and reactions were allowed to proceed for 90 minutes. Fluorescence was measured every 30 s between 90 and 120 minutes reaction time using a Tecan InfiniTe M1000 or PerkinElmer Envision multimode plate reader with an excitation wavelength of 340 nm and an emission wavelength of 490 nm.
(§9) Rates were calculated from the progress curves at steady state, in the time frame of 90-120 minutes after addition of substrate. To determine the Ki, rates were plotted as a function of inhibitor concentration, and the data were fit with equation 1 (Morrison, J. F., Biochimica et Biophysica Acta 1969, 185, 269-286) to calculate Ki^app using GraphPad Prism 5. Active fraction of enzyme was determined by active site titration with known potent inhibitors. Ki was calculated from Ki^app/(1+[[S]/Km]).

[4] = tested on: genotype 4a stable HCV replicon (ED43) in Huh-7-derived cells; assay: Stable subgenomic HCV replicon, genotype 4a, Renilla luciferase; type: cell-based; settings: Hepatitis C virus, 72 h, read-out: EC50 4A RLUC
Experimental: as §1, §2, §3, §4

NS3 genotype 3a protease = biological target: T2, NS3 genotype 3a protease (UniProt Q81258); assay: Ki determination, NS3 protease genotype 3a (fluorogenic depsipeptide substrate); type: biochemical, hepatitis C virus; settings: NS3 protease domain genotype 3a, NS4A peptide
T2 construct: Purified NS3 protease domain (amino acids 1-181) of the genotype 1b and 3a virus were generated as above; fused on or other part: N-terminal hexahistidine tag with an rTEV protease cleavage site (vector p28-N6H-Tev-NS3(181)3)
T2 sequence (Q81258 1033-1663): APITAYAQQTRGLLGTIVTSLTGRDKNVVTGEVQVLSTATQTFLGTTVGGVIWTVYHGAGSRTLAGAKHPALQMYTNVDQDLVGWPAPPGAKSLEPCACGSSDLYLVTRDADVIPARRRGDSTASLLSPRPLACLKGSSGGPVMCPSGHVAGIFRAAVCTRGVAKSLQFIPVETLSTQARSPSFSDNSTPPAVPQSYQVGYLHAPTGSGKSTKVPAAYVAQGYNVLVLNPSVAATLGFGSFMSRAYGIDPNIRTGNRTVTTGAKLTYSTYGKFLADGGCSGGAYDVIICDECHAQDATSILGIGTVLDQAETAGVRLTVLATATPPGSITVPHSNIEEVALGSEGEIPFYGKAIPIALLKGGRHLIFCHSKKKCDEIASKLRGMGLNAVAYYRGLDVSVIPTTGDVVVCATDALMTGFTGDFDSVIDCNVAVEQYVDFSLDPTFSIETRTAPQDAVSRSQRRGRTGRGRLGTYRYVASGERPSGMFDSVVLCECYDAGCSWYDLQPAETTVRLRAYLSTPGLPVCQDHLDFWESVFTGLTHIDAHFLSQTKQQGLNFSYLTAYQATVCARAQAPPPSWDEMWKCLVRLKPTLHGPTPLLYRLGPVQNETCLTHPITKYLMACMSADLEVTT
Excerpt: as §5, §6, §7, §8, §9

[5] = tested on: genotype 1b stable HCV replicon (Con1) in Huh-7-derived cells; assay: Stable subgenomic HCV replicon, genotype 1b, Renilla luciferase; type: cell-based; settings: Hepatitis C virus, stable replicon genotype 1b, 72 h, read-out: EC50 1B RLUC
Experimental: as §1, §2, §3, §4

[6] = tested on: genotype 1a stable HCV replicon (H77) in Huh-7-derived cells; assay: Stable subgenomic HCV replicon, genotype 1a, Renilla luciferase; type: cell-based; settings: Hepatitis C virus, stable replicon genotype 1a, 72 h, read-out: EC50 1A RLUC
Experimental: as §1, §2, §3, §4

T1 sequence (Q9WMX2 1027-1207 E1202G, other chains not shown): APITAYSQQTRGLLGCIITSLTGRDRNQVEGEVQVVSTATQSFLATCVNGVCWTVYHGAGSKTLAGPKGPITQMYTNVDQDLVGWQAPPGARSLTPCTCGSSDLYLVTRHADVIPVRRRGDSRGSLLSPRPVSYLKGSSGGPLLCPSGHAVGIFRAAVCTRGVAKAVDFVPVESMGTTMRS

`COC(=O)[C@@H]1C[C@@H]2CN1C(=O)[C@H](C(C)(C)C)NC(=O)O[C@@H]1C[C@@H]3C[C@@H]3[C@H]1CCCC=Cc1nc3ccc(Cl)cc3nc1O2` showed a ring closure, yield of all isomers [1] of 56.6%.

`COc1ccc2nc3c(nc2c1)O[C@@H]1C[C@@H](C(=O)N[C@]2(C(=O)NS(=O)(=O)C4CC4)C[C@H]2C(F)F)N(C1)C(=O)[C@H](C(C)(C)C)NC(=O)O[C@H]1[C@@H]2CC[C@@H](C2)[C@@H]1CCCCC3` [Example 6, (1S,4R,4aS,8S,11S,13R,25aS)-8-tert-butyl-N-[(1R,2R)-1-[(cyclopropylsulfonyl)carbamoyl]-2-(difluoromethyl)cyclopropyl]-17-methoxy-6,9-dioxo-2,3,4,4a,6,7,8,9,12,13,21,22,23,24,25,25a-hexadecahydro-1H,11H-1, 4:10,13-dimethanoquinoxalino[2,3-k][1,10,3,6]benzodioxadiazacyclononadecine-11-carboxamide] gave an EC50 [2] of 294 nM, an EC50 [3] of 3840 nM and a Ki (NS3 genotype 1b protease) of 0.01 nM. It also gave an EC50 [4] of 433 nM, a Ki (NS3 genotype 3a protease) of 1.2 nM and an EC50 [5] of 581 nM. The EC50 [6] was 723 nM.
